Source: ChEMBL document CHEMBL1133801, “Synthesis, characterisation and antiamoebic activity of new thiophene-2-carboxaldehyde thiosemicarbazone derivatives and their cyclooctadiene Ru(II) complexes” (Bioorg Med Chem Lett, 2001)
In brackets after ≈: the same amount, converted by molar mass.

Test system: Entamoeba histolytica
Assay: In vitro antiamoebic activity was evaluated against HK-9 strain of Entamoeba histolytica
Format: functional, organism-based

IC50 [µg/mL] | Structure (SMILES)
0.5 (≈ 1.69 µM) | S=C(N/N=C/c1cccs1)NC1CCCCCCC1
0.56 (≈ 2.09 µM) | S=C(N/N=C/c1cccs1)NC1CCCCC1
0.64 (≈ 2.53 µM) | S=C(N/N=C/c1cccs1)NC1CCCC1
0.7 (≈ 2.62 µM) | S=C(N/N=C/c1cccs1)N1CCCCCC1
0.22 (≈ 1.29 µM) | Cc1ncc([N+](=O)[O-])n1CCO [METRONIDAZOLE]
